Measurements published in patent US20080009546A1 (Chevron U.S.A. Inc., priority 2005, published 2008).

Tested on: C57/BL6 male mice
Experiment: Pentylenetetrazol (PTZ)-induced seizure/death model
Format: in vivo, mouse
Settings: for # of deaths within 30 min: 6 mice; for # of deaths within 30 min / PTZ-induced death: PTZ 100 mg/kg; for PTZ-induced death: 30 min observation
Method: Although the protection against death is the key endpoint, other effects of the compounds on PTZ-induced seizures were also assessed using multiple parameters. For the mice that did die within the 30 minute observation window, the time of death was also compared. […] The seizure occurrence rate, onset time and number of level 3 (L3) seizure (repetitive seizures but the animal can still stand) and level 4 (L4) seizure (repetitive seizures and the animal loses righting) are also analyzed. The MDT compound (30 mg/kg) treated groups show a certain degree of improvement compared to control. No data from MK801 or memantine were included because the seizures occurring under these treatments are totally different from the control or MDT injected groups due to side effects (“high jumping”).

CC12CC3CC(C)(C1)CC(N)(C3)C2 [memantine, 1-amino-3,5-dimethyladamantane, reference compound]
Mortality rate (10 mg/kg i.p.): 0.17 | # of deaths within 30 min (10 mg/kg i.p.): 1 | Mortality rate (30 mg/kg i.p.): 0 | # of deaths within 30 min (30 mg/kg i.p.): 0 | PTZ-induced death (10 and 30 mg/kg i.p.): dose-dependent reduction in death | PTZ-induced death (high dose 30 mg/kg i.p.): full protection
